# Measured values published in ChEMBL document CHEMBL4340504, “Caged-xanthone from Cratoxylum formosum ssp. pruniflorum inhibits malignant cancer phenotypes in multidrug-resistant human A549 lung cancer cells through down-regulation of NF-κB” (Bioorg Med Chem, 2019).
# Activity calls are given as the source filed them. The calls are words filed in the database; no cut-off is given here.
# Experiments:
# Homo sapiens [1] = organism: Homo sapiens; experiment: Induction of apoptosis in human A549RT-eto cells transfected with NF-kappaB siRNA assessed as increase in pro-caspase 9 expression at 1.5 ug/ml by immunoblotting analysis; assay type: functional, cell-based
# Homo sapiens [2] = organism: Homo sapiens; experiment: Inhibition of NFkappaB in human A549RT-eto cells assessed as suppression of sphere formation by measuring decrease in number of spheroid formation at 1.5 ug/mL treated for 24 hrs followed by cell culture for 6 days and measured over 48 hrs by optical microscopic method; assay type: cell-based
# A549 = experiment: Cytotoxicity against human A549 cells assessed as reduction in cell viability after 72 hrs by MTT assay; assay type: functional, cell-based; details: A549, 72 h
# Homo sapiens [3] = organism: Homo sapiens; experiment: Induction of apoptosis in human A549RT-eto cells assessed as increase in PARP level at 1 to 5 ug/ml measured after 24 hrs by immunoblotting analysis; assay type: functional, cell-based
# Homo sapiens [4] = organism: Homo sapiens; experiment: Inhibition of NFkappaB in human A549RT-eto cells assessed as down regulation of P-gp expression at 1 to 5 ug/ml measured after 24 hrs by immunoblotting analysis; assay type: cell-based
# Homo sapiens [5] = organism: Homo sapiens; experiment: Inhibition of NFkappaB in human A549RT-eto cells assessed as down regulation of Bmi1 expression by immunoblotting analysis; assay type: cell-based
# Homo sapiens [6] = organism: Homo sapiens; experiment: Antimigratory activity in human A549RT-eto cells assessed as decrease in cell migration at 1.5 ug/ml for 24 hrs by phase contrast microscopy-based scratch would healing assay; assay type: functional
# Homo sapiens [7] = organism: Homo sapiens; experiment: Induction of apoptosis in human A549RT-eto cells assessed as reduction in […] 9 level at 1 to 5 ug/ml measured after 24 hrs by immunoblotting analysis; assay type: functional, cell-based
# Homo sapiens [8] = organism: Homo sapiens; experiment: Down regulation of NFkappaB expression in human A549RT-eto cells transfected with NF-kappaB siRNA at 1.5 ug/ml by immunoblotting analysis; assay type: functional, cell-based
# Homo sapiens [9] = organism: Homo sapiens; experiment: Induction of apoptosis in human A549RT-eto cells transfected with NF-kappaB siRNA assessed as increase in cleaved PARP expression at 1.5 ug/ml by immunoblotting analysis; assay type: functional, cell-based
# [10] = (§1) Cytotoxicity against human A549RT-eto cells assessed as reduction in cell viability after 72 hrs by MTT assay; assay type: functional, cell-based
# Homo sapiens [11] = organism: Homo sapiens; experiment: as §1; assay type: functional, cell-based
# Homo sapiens [12] = organism: Homo sapiens; experiment: Inhibition of NFkappaB in human A549RT-eto cells assessed as down regulation of Oct4 expression by immunoblotting analysis; assay type: cell-based
# Homo sapiens [13] = organism: Homo sapiens; experiment: Induction of apoptosis in human A549RT-eto cells transfected with NF-kappaB siRNA assessed as increase in pro-caspase 8 expression at 1.5 ug/ml by immunoblotting analysis; assay type: functional, cell-based
# Homo sapiens [14] = organism: Homo sapiens; experiment: Inhibition of NFkappaB in human A549RT-eto cells assessed as down regulation of S0x2 expression by immunoblotting analysis; assay type: cell-based
# Homo sapiens [15] = organism: Homo sapiens; experiment: Induction of apoptosis in human A549RT-eto cells assessed as reduction in […] 8 level at 1 to 5 ug/ml measured after 24 hrs by immunoblotting analysis; assay type: functional, cell-based
# Homo sapiens [16] = organism: Homo sapiens; experiment: Inhibition of NFkappaB in human A549RT-eto cells assessed as downregulation of Nanog expression by immunoblotting analysis; assay type: cell-based
# Homo sapiens [17] = organism: Homo sapiens; experiment: Inhibition of NFkappaB in human A549RT-eto cells assessed as reduction in epithelial-mesenchymal transition by measuring up regulation of E-Cadherin expression at 1 to 1.5 ug/ml after 24 hrs by immunoblotting analysis; assay type: cell-based
# Homo sapiens [18] = organism: Homo sapiens; experiment: Inhibition of NFkappaB in human A549RT-eto cells assessed as reduction in epithelial-mesenchymal transition by measuring down regulation of vimentin expression at 1 to 1.5 ug/ml after 24 hrs by immunoblotting analysis; assay type: cell-based
# Homo sapiens [19] = organism: Homo sapiens; experiment: Down regulation of P-gp expression in human A549RT-eto cells transfected with NF-kappaB siRNA at 1.5 ug/ml by immunoblotting analysis; assay type: functional, cell-based
# Homo sapiens [20] = organism: Homo sapiens; experiment: Inhibition of NFkappaB in human A549RT-eto cells assessed as suppression of sphere formation by measuring decrease in spheroid size at 1.5 ug/mL treated for 24 hrs followed by cell culture for 6 days and measured over 48 hrs by optical microscopic method; assay type: cell-based
# Homo sapiens [21] = organism: Homo sapiens; experiment: Down regulation of NFkappaB expression in human A549RT-eto cells at 1 to 5 ug/ml measured after 24 hrs by immunoblotting analysis; assay type: functional, cell-based
# Homo sapiens [22] = organism: Homo sapiens; experiment: Cytotoxicity against human A549RT-eto cells assessed as cell death after 24 hrs by MTT assay; assay type: functional, cell-based
# [23] = Antiinvasive activity in human A549RT-eto cells assessed as reduction in cell invasion at 1.5 ug/ml measured after 24 hrs using hematoxylin-eosin by microscopy-based transwell assay relative to control; assay type: functional
# Homo sapiens [24] = organism: Homo sapiens; experiment: Inhibition of NFkappaB in human A549RT-eto cells assessed as reduction in epithelial-mesenchymal transition by measuring down regulation of N-Cadherin expression at 1 to 1.5 ug/ml after 24 hrs by immunoblotting analysis; assay type: cell-based
smiles,measurement,setting,value
CO[C@@]12C=C3C(=O)c4c(O)cccc4O[C@@]34[C@@H](C1)C(C)(C)O[C@@]4(CC=C(C)C)C2=O,Activity,Homo sapiens [1],Active
same,inhibition,Homo sapiens [2],Active
same,IC50,A549,2.51 µg/mL
same,Activity,Homo sapiens [3],Active
same,inhibition,Homo sapiens [4],Active
same,inhibition,Homo sapiens [5],Dose-dependent effect
same,Activity,Homo sapiens [6],Active
same,Activity,Homo sapiens [7],Active
same,Activity,Homo sapiens [8],Active
same,Activity,Homo sapiens [9],Active
same,IC50,[10],4.96 µg/mL
same,Activity,Homo sapiens [11],Dose-dependent effect
same,inhibition,Homo sapiens [12],Dose-dependent effect
same,Activity,Homo sapiens [13],Active
same,inhibition,Homo sapiens [14],Dose-dependent effect
same,Activity,Homo sapiens [15],Active
same,inhibition,Homo sapiens [16],Dose-dependent effect
same,inhibition,Homo sapiens [17],Active
same,inhibition,Homo sapiens [18],Active
same,Activity,Homo sapiens [19],Active
same,inhibition,Homo sapiens [20],Active
same,Activity,Homo sapiens [21],Active
same,Activity,Homo sapiens [22],Active
same,fold change (FC),[23],2
same,inhibition,Homo sapiens [24],Active
